Experimental data from patent US20190365697A1, “Method for Treating Liver Dysfunction” (PROFEAT BIOTECHNOLOGY CO., LTD., priority 2017, published 2019).

System: dogs, whose liver functions were not improved after the administration of SAMe
Assay: Administration of SAMe followed by administration of Composition A1 to dogs; serum ALT, AST
Type: in vivo
Details: SAMe alone to dogs, clinically observed
Experimental: Therefore, Composition A1 was administered to 3 dogs, whose liver functions were not improved after the administration of SAMe. And the serum biochemistry values related to the liver function, ALT, AST and ALKP, were examined.

C[S+](CC[C@H](N)C(=O)[O-])C[C@H]1O[C@@H](n2cnc3c(N)ncnc32)[C@H](O)[C@@H]1O (stereo partly shown) [SAMe, S-adenosylmethionine]
improvement of liver functions: liver functions still cannot be improved
